Values quoted from earlier work as cited in patent US6713069B1, “Compositions and methods for detecting, preventing, and treating African Hemorrhagic Fever” (Board of Supervisors of Louisiana State University and …, priority 1996, dated 2004).

System: HIV

Substance: enfuvirtide
- inhibition of HIV infection and fusion: inhibit HIV infection and fusion at very low dosages
